In patent US20050209157A1, “Short bioactive peptides and methods for their use” (priority 2001, published 2005):
No end group written: not given here.

Tests used:
[1] = test system: Pseudomonas aeruginosa ATCC 9027; test: Antimicrobial assay I, MIC by OD measurement; format: cell-based; conditions: 37° C. for 24 hours, absorbance 620 nm
[2] = test system: Staphylococcus aureus ATCC 6538; test: Antimicrobial assay I, MIC by OD measurement; format: cell-based; conditions: 37° C. for 24 hours, absorbance 620 nm
[3] = test system: yeast (Saccharomyces cerevisiae); test: Antimicrobial assay I, yeast assay in RPMI 1640; format: cell-based; conditions: RPMI 1640 media
BMKC = test: Anti-cancer assay, MTT, LD50; format: cell-based; conditions: BMKC cloned melanoma line, 24 hours with peptide
From the text: (§1) Numbers are LD50 values (μg/mL).

H1299 = test: Anti-cancer assay, MTT, LD50; format: cell-based; conditions: 24 hours with peptide, lung large cell carcinoma
From the text: as §1

HeLaS3 = test: Anti-cancer assay, MTT, LD50; format: cell-based; conditions: 24 hours with peptide, cervical carcinoma
From the text: as §1

MCF7 = test: Anti-cancer assay, MTT, LD50; format: cell-based; conditions: MCF7 breast adenocarcinoma line, MTT, 24 hours with peptide
From the text: as §1

PC3 = test: Anti-cancer assay, MTT, LD50; format: cell-based; conditions: 24 hours with peptide, prostate adenocarcinoma
From the text: as §1

SW480 = test: Anti-cancer assay, MTT, LD50; format: cell-based; conditions: SW480 colon adenocarcinoma line, 24 hours with peptide
From the text: as §1

[4] = test system: human red blood cells (RBC); test: in vitro; format: cell-based; conditions: hemolytic assay, concentration at 50% hemolysis, 1 hour at 37° C.
WI38 = conditions: MTT, 24 hours with peptide; for WI38 LD50: normal fibroblast line; for LD50 WI38: WI38 normal lung fibroblast line

Row | Substance | paerug9027 (MIC) [1] | staph6538 (MIC) [2] | yeast (MIC or MFC) [3] | LD50 BMKC (BMKC) | H1299 LD50 (H1299) | HeLaS3 LD50 (HeLaS3) | LD50 MCF7 (MCF7) | PC3 LD50 (PC3) | LD50 SW480 (SW480) | LD50 [4] | WI38 LD50 (WI38) | LD50 WI38 (WI38)
1 | FAKLLAKAFKKAL-NH2 [P114, FAKLLAKAFKKAL-NH2] | 15 µg/mL | 50 µg/mL | 100 µg/mL | > (> indicates greater than 1000) | > (> indicates greater than 1000) | > (> indicates greater than 1000) | 730 µg/mL | > (> indicates greater than 1000) | > (> indicates greater than 1000) | > (> indicates greater than 1000) | > (> indicates greater than 1000) | > (> indicates greater than 1000)
2 | FAKLLAKLAKAKG-NH2 [P96] | > (> indicates greater than 200 μg/mL) | > (> indicates greater than 200 μg/mL) | > (> indicates greater than 200 μg/mL) | > (> indicates greater than 1000) | > (> indicates greater than 1000) | > (> indicates greater than 1000) | > (> indicates greater than 1000) | > (> indicates greater than 1000) | > (> indicates greater than 1000) | > (> indicates greater than 1000) | > (> indicates greater than 1000) | > (> indicates greater than 1000)
3 | FAKLLAKLAKK-NH2 [P151] | > (> indicates greater than 200 μg/mL) | > (> indicates greater than 200 μg/mL) | 200 µg/mL | > (> indicates greater than 1000) | > (> indicates greater than 1000) | > (> indicates greater than 1000) | > (> indicates greater than 1000) | > (> indicates greater than 1000) | > (> indicates greater than 1000) | > (> indicates greater than 1000) | > (> indicates greater than 1000) | > (> indicates greater than 1000)
4 | FAKLLAKLAKKEL-NH2 [P126] | > (> indicates greater than 200 μg/mL) | > (> indicates greater than 200 μg/mL) | > (> indicates greater than 200 μg/mL) | > (> indicates greater than 1000) | > (> indicates greater than 1000) | > (> indicates greater than 1000) | > (> indicates greater than 1000) | > (> indicates greater than 1000) | > (> indicates greater than 1000) | > (> indicates greater than 1000) | > (> indicates greater than 1000) | > (> indicates greater than 1000)
5 | FAKLWAKLAKKL-NH2 [P136] | 50 µg/mL | 100 µg/mL | 100 µg/mL | 530 µg/mL | 450 µg/mL | 400 µg/mL | 500 µg/mL | 900 µg/mL | 600 µg/mL | > (> indicates greater than 1000) | > (> indicates greater than 1000) | > (> indicates greater than 1000)
6 | FALAKALKKAL-NH2 [P166, FALAKALKKAL-NH2] | > (> indicates greater than 200 μg/mL) | > (> indicates greater than 200 μg/mL) | > (> indicates greater than 200 μg/mL) | > (> indicates greater than 1000) | > (> indicates greater than 1000) | > (> indicates greater than 1000) | > (> indicates greater than 1000) | > (> indicates greater than 1000) | > (> indicates greater than 1000) | > (> indicates greater than 1000) | > (> indicates greater than 1000) | > (> indicates greater than 1000)
7 | FALAKKALKKAKKAL-NH2 [P40, FALAKKALKKAKKAL-NH2] | 25 µg/mL | 100 µg/mL | 100 µg/mL | > (> indicates greater than 1000) | > (> indicates greater than 1000) | > (> indicates greater than 1000) | 760 µg/mL | 435 µg/mL | > (> indicates greater than 1000) | > (> indicates greater than 1000) | > (> indicates greater than 1000) | > (> indicates greater than 1000)
8 | FALALKALKK-NH2 [P169] | 100 µg/mL | 100 µg/mL | 100 µg/mL | 530 µg/mL | 640 µg/mL | > (> indicates greater than 1000) | 510 µg/mL | > (> indicates greater than 1000) | > (> indicates greater than 1000) | > (> indicates greater than 1000) | > (> indicates greater than 1000) | > (> indicates greater than 1000)
9 | FALKALKK-NH2 [P145] | 100 µg/mL | 200 µg/mL | 200 µg/mL | > (> indicates greater than 1000) | > (> indicates greater than 1000) | 240 µg/mL | > (> indicates greater than 1000) | > (> indicates greater than 1000) | > (> indicates greater than 1000) | > (> indicates greater than 1000) | > (> indicates greater than 1000) | > (> indicates greater than 1000)
10 | FALKALKKAL-NH2 [P170, FALKALKKAL-NH2] | 100 µg/mL | 200 µg/mL | 100 µg/mL | > (> indicates greater than 1000) | > (> indicates greater than 1000) | > (> indicates greater than 1000) | 940 µg/mL | > (> indicates greater than 1000) | > (> indicates greater than 1000) | > (> indicates greater than 1000) | > (> indicates greater than 1000) | > (> indicates greater than 1000)
11 | FGKGIGKVGKKLL-NH2 [P132] | 100 µg/mL | > (> indicates greater than 200 μg/mL) | > (> indicates greater than 200 μg/mL) | > (> indicates greater than 1000) | > (> indicates greater than 1000) | > (> indicates greater than 1000) | > (> indicates greater than 1000) | > (> indicates greater than 1000) | > (> indicates greater than 1000) | > (> indicates greater than 1000) | > (> indicates greater than 1000) | > (> indicates greater than 1000)
12 | KAKLAKKALAKLL-NH2 [P149] | 100 µg/mL | 50 µg/mL | 200 µg/mL | > (> indicates greater than 1000) | > (> indicates greater than 1000) | > (> indicates greater than 1000) | > (> indicates greater than 1000) | > (> indicates greater than 1000) | > (> indicates greater than 1000) | > (> indicates greater than 1000) | > (> indicates greater than 1000) | > (> indicates greater than 1000)
13 | KAKLF-NH2 [P130, KAKLF-NH2] | 200 µg/mL | 200 µg/mL | 200 µg/mL | > (> indicates greater than 1000) | > (> indicates greater than 1000) | > (> indicates greater than 1000) | > (> indicates greater than 1000) | > (> indicates greater than 1000) | > (> indicates greater than 1000) | > (> indicates greater than 1000) | > (> indicates greater than 1000) | > (> indicates greater than 1000)
14 | KWKLF-NH2 [P131, KWKLF-NH2] | 10 µg/mL | 25 µg/mL | 100 µg/mL | > (> indicates greater than 1000) | > (> indicates greater than 1000) | > (> indicates greater than 1000) | 600 µg/mL | > (> indicates greater than 1000) | 555 µg/mL | > (> indicates greater than 1000) | > (> indicates greater than 1000) | > (> indicates greater than 1000)
